According to patent US20160220602A1, “USE OF CHINESE MEDICINE PREPARATION IN PREPARING DRUG FOR PREVENTING AND/OR TREATING CROHN'S DISEASE” (TASLY PHARMACEUTICAL GROUP CO., LTD., priority 2013, published 2016):

Tests used:
Format in all cases: in vivo, SD rats
IFN-γ [1] = assay: Serum IFN-γ by ELISA, TNBS model rats; details: 100 mg/kg once per day, 21 days
Procedure: (§1) Grouping: experiment was carried out by using two ways of intracolonic and intragastric administrations. […] There were 10 rats each group. Method for establishing rat model: referring to Morris method, TNBS was used to induce the SD rat Crohn's disease model (abbreviated as “TNBS model”). 24 hours before modeling, the SD rats were fasted but water was given. […] The rats of blank control group were normally fed with free access to water and the same volume of normal saline was given in the same administration routes by referring to the dosage regime of aforementioned treatment groups. The rats of model group were administrated with the same volume of normal saline in the same administration routes. […] (2) Serum indices: after final administration, the testing rats were fasted but given water. 24 hours later, blood was gained from abdominal aorta. Serum IFN-γ, IL-1, IL-4, IL-10 and Gln in intestinal mucosa were determined by enzyme-linked immunosorbent assay (ELISA) in rats.

[2] = tested on: TNBS-induced SD rat Crohn's disease model; assay: DAI score in TNBS-caused Crohn's disease rat model; details: TNBS model rats, 100 mg/kg
Procedure: Grouping: experiment was carried out by using two ways of intracolonic and intragastric administrations. […] There were 10 rats each group. Method for establishing rat model: referring to Morris method, TNBS was used to induce the SD rat Crohn's disease model (abbreviated as “TNBS model”). 24 hours before modeling, the SD rats were fasted but water was given. […] The rats of blank control group were normally fed with free access to water and the same volume of normal saline was given in the same administration routes by referring to the dosage regime of aforementioned treatment groups. The rats of model group were administrated with the same volume of normal saline in the same administration routes. […] (1) General Indices: weight change and stool (e.g. fecal occult blood, bloody stool and diarrhea) was observed every day to calculate DAI (disease activity index) score. DAI score=(weight loss percentage+stool character fraction+hematochezia fraction)/3 [table]

IL-1 = assay: Serum IL-1 by ELISA, TNBS model rats; details: 100 mg/kg once per day, 21 days
Procedure: as §1

IFN-γ [3] = assay: Serum IFN-γ by ELISA, OXZ model rats; details: 100 mg/kg once per day, 11 days
Procedure: (§2) Grouping: the experiment was carried out by using two ways of intracolonic and intragastric administration. […] There were 10 rats each group. Method for establishing rat model: referring to the Heller method, OXZ was used to induce the SD rat Crohn's disease model (abbreviated as “OXZ model”). Neck and back skin of rats were shaved (2 cm×2 cm). Ethanol was used to prepare 5% (w/v) OXZ solution, and 0.3 ml resultant OXZ solution was dripped on the skin of rats. After the solution was air-dried naturally, skin allergy occurred in rats. The sensitized rats were adaptively raised for 5 days, […] anesthetized by intraperitoneal injection of pentobarbital sodium. […] After completion, the rats were inverted by lifting tails for 60s to make the solution totally absorbed. […] If the rats manifested dark hair color, body weight loss, poor appetite, lassitude, watery stool or diarrhea, the model establishment was success. Administration method: after successful model establishment by OXZ, the drug was given to rats. The TCM preparation k saline solutions at corresponding dose were administered to the groups of preparation k of all doses and the […] saline solution, a positive drug, administrated to the positive control group. […] Serum IFN-γ, IL-4, and Gln in intestinal mucosa were determined by ELISA in rats.

IL-10 = assay: Serum IL-10 by ELISA, TNBS model rats; details: 100 mg/kg once per day, 21 days
Procedure: as §1

Gln in intestinal mucosa [4] = assay: Gln in intestinal mucosa by ELISA, TNBS model rats; details: 100 mg/kg once per day, 21 days
Procedure: as §1

Gln in intestinal mucosa [5] = assay: Gln in intestinal mucosa by ELISA, OXZ model rats; details: 100 mg/kg once per day, 11 days
Procedure: as §2

## Nc1ccc(O)c(C(=O)O)c1 [mesalamine, Mesalamine]
IFN-γ [1]; intracolonic
  IFN-γ serum content (Mean ± SD): 84.51 ± 19.65 pg/mL
IFN-γ [1]; intragastric
  IFN-γ serum content (Mean ± SD): 93.88 ± 23.67 pg/mL
[2]; intracolonic, 0th day (1 day before model established)
  DAI score (Mean ± SD): 0.000 ± 0.000
[2]; intracolonic, 2nd day
  DAI score (Mean ± SD): 1.867 ± 0.571
[2]; intracolonic, 3rd day
  DAI score (Mean ± SD): 2.100 ± 0.754
[2]; intracolonic, 4th day
  DAI score (Mean ± SD): 2.067 ± 0.7217
[2]; intracolonic, 5th day
  DAI score (Mean ± SD): 1.733 ± 0.562
[2]; intracolonic, 6th day
  DAI score (Mean ± SD): 1.367 ± 0.532
[2]; intracolonic, 7th day
  DAI score (Mean ± SD): 1.267 ± 0.467
[2]; intracolonic, 8th day
  DAI score (Mean ± SD): 1.167 ± 0.360
[2]; intracolonic, 9th day
  DAI score (Mean ± SD): 1.067 ± 0.306
[2]; intracolonic, 10th day
  DAI score (Mean ± SD): 1.000 ± 0.314
[2]; intracolonic, 11th day
  DAI score (Mean ± SD): 0.933 ± 0.211
[2]; intracolonic, 12th day
  DAI score (Mean ± SD): 0.833 ± 0.236
[2]; intracolonic, 13th day
  DAI score (Mean ± SD): 0.833 ± 0.236
[2]; intracolonic, 14th day
  DAI score (Mean ± SD): 0.767 ± 0.353
[2]; intracolonic, 15th day
  DAI score (Mean ± SD): 0.733 ± 0.344
[2]; intragastric, 0th day (1 day before model established)
  DAI score (Mean ± SD): 0.000 ± 0.000
[2]; intragastric, 2nd day
  DAI score (Mean ± SD): 1.519 ± 0.412
[2]; intragastric, 3rd day
  DAI score (Mean ± SD): 1.481 ± 0.380
[2]; intragastric, 4th day
  DAI score (Mean ± SD): 1.333 ± 0.333
[2]; intragastric, 5th day
  DAI score (Mean ± SD): 1.111 ± 0.333
[2]; intragastric, 6th day
  DAI score (Mean ± SD): 1.037 ± 0.261
[2]; intragastric, 7th day
  DAI score (Mean ± SD): 1.000 ± 0.236
[2]; intragastric, 8th day
  DAI score (Mean ± SD): 0.963 ± 0.309
[2]; intragastric, 9th day
  DAI score (Mean ± SD): 0.889 ± 0.289
[2]; intragastric, 10th day
  DAI score (Mean ± SD): 0.741 ± 0.324
[2]; intragastric, 15th day
  DAI score (Mean ± SD): 0.481 ± 0.242
[2]; intragastric, 16th day
  DAI score (Mean ± SD): 0.481 ± 0.242
[2]; intragastric, 18th day
  DAI score (Mean ± SD): 0.333 ± 0.236
[2]; intragastric, 19th day
  DAI score (Mean ± SD): 0.259 ± 0.147
[2]; intragastric, 20th day
  DAI score (Mean ± SD): 0.222 ± 0.167
IL-1; intracolonic
  IL-1 serum content (Mean ± SD): 167.66 ± 26.95 pg/mL
IL-1; intragastric
  IL-1 serum content (Mean ± SD): 154.59 ± 39.98 pg/mL
IFN-γ [3]; intracolonic
  IFN-γ serum content (Mean ± SD): 85.85 ± 10.66 pg/mL
IFN-γ [3]; intragastric
  IFN-γ serum content (Mean ± SD): 81.88 ± 18.00 pg/mL
IL-10; intracolonic
  IL-10 serum content (Mean ± SD): 88.06 ± 10.47 pg/mL
IL-10; intragastric
  IL-10 serum content (Mean ± SD): 88.56 ± 16.77 pg/mL
Gln in intestinal mucosa [4]; intracolonic
  Gln in intestinal mucosa (Mean ± SD): 146.36 ± 28.11 µmol/L
Gln in intestinal mucosa [4]; intragastric
  Gln in intestinal mucosa (Mean ± SD): 158.74 ± 41.35 µmol/L
Gln in intestinal mucosa [5]; intracolonic
  Gln in intestinal mucosa (Mean ± SD): 124.06 ± 24.40 µmol/L
Gln in intestinal mucosa [5]; intragastric
  Gln in intestinal mucosa (Mean ± SD): 132.59 ± 41.74 µmol/L
